Molecular target: T1, SAMHD1_114-626 (Homo sapiens, UniProt Q9Y3Z3)
T1 construct: gene SAMHD1; purified recombinant residues 114-626 (HD domain and C-terminus, SAM domain removed); monomer without nucleotides, tetramer with GTP/dTTP
Assay: 1H NMR dTTP hydrolysis rate versus GTP concentration
Type: biochemical
From the text: 1H NMR dTTP hydrolysis rate versus GTP concentration on SAMHD1_114-626 | we determine the EC50^GTP (half-maximal effective concentration) and kcat

T1 sequence (Q9Y3Z3 114-626): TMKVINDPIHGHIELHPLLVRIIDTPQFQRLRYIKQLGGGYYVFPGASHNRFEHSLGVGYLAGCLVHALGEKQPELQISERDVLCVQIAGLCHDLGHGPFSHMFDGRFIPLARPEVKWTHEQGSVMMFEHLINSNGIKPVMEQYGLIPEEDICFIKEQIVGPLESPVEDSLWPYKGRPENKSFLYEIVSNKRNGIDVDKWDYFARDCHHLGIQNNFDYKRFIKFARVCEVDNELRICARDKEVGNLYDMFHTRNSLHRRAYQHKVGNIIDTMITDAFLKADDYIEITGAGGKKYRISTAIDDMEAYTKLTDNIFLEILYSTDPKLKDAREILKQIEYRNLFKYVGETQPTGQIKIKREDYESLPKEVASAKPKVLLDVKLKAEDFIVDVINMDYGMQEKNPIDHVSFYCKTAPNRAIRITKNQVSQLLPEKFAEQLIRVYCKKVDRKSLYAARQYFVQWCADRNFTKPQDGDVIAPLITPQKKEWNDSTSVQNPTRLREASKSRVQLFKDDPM

- EC50: 1.7 µM
SMILES: Nc1nc2c(ncn2[C@@H]2O[C@H](COP(=O)(O)OP(=O)(O)OP(=O)(O)O)[C@@H](O)[C@H]2O)c(=O)[nH]1 [GTP]

Source: publication PMC11389391, “Acetylation of SAMHD1 at lysine 580 is crucial for blocking HIV-1 infection” (mBio, 2024)
